Consider 18 compounds from patent US8163793B2, “Proline derivatives” (Hoffman-La Roche Inc., priority 2009, dated 2012).

The IC50 is the concentration that inhibits the measured activity by half.

For one assay, the target named is Cathepsin S (UniProt P25774). Put plainly: Cathepsin enzyme inhibition assay (fluorogenic peptide substrate Z-Val-Val-Arg-AMC), Cathepsin S. The assay is classed as biochemical, human and mouse. As to conditions: enzyme 1 nM, substrate 20 μM, pH 6.5; read-out: CatS IC50. On the procedure:
(§1) Cathepsin Enzyme Inhibition Assay
(§2) Enzyme activity is measured by observing the increase in fluorescence intensity caused by cleavage of a peptide substrate containing a fluorophore whose emission is quenched in the intact peptide.
(§3) Assay buffer: 100 mM potassium phosphate pH 6.5, EDTA-Na 5 mM, Triton X-100 0.001%, DDT 5 mM.
(§4) Enzymes (all at 1 nM): human and mouse Cathepsin S, Cat K, Cat B, Cat L Substrate (20 μM): Z-Val-Val-Arg-AMC, except for Cat K which uses Z-Leu-Arg-AMC (both from Bachem).
(§5) AMC=7-Amino-4-Methyl-Coumarin.
Enzyme is added to the substance dilutions in 96-well microtitre plates and the reaction is started with substrate. […] IC50 are calculated by standard methods. The results are expressed in μM in the following table.

The target in the next assay is Cat L (UniProt P07711). Kind of assay: Cathepsin enzyme inhibition assay (fluorogenic peptide substrate Z-Val-Val-Arg-AMC), Cathepsin L. The assay is classed as biochemical, human and mouse. As to conditions: enzyme 1 nM, substrate 20 μM, pH 6.5; read-out: CatL IC50. On the procedure: as §1, §2, §3, §4, §5
Excitation 360 nm, Emission 465 nm.
Enzyme is added to the substance dilutions in 96-well microtitre plates and the reaction is started with substrate. Fluorescence emission is measured over 20 minutes, during which time a linear increase is observed in the absence of inhibitor. IC50 are calculated by standard methods. The results are expressed in μM in the following table.

For the compound `N#CC1(NC(=O)[C@@H]2C[C@@H](S(=O)(=O)c3ccccc3Cl)CN2C2CCC2)CC1` [Example 84, (2S,4R)-4-(2-Chloro-benzenesulfonyl)-1-cyclobutyl-pyrrolidine-2-carboxylic acid (1-cyano-cyclopropyl)-amide], the results for the IC50 on Cathepsin S and on Cat L were 55 nM and at least 25 µM, respectively. With `N#CC1(NC(=O)[C@@H]2C[C@@H](S(=O)(=O)c3ccccc3Cl)CN2C(=O)C2(c3ccc(Cl)cc3Cl)CC2)CC1` [Example 443, (2S,4R)-4-(2-Chloro-benzenesulfonyl)-1-[1-(2,4-dichloro-phenyl)-cyclopropanecarbonyl]-pyrrolidine-2-carboxylic acid (1-cyano-cyclopropyl)-amide], the IC50 on Cathepsin S is 0.605 nM; at Cat L, 0.022 µM. In the same order, the values of `CC(C)(C)OC(=O)N1C[C@H](S(=O)(=O)c2ccc(OC3COC3)cc2Cl)C[C@H]1C(=O)NC1(C#N)CC1` [Example 174, (2S,4R)-4-[2-Chloro-4-(oxetan-3-yloxy)-benzenesulfonyl]-2-(1-cyano-cyclopropylcarbamoyl)-pyrrolidine-1-carboxylic acid tert.-butyl ester] are 3.3 nM and 41.5 µM. Consider `COC(=O)N1C[C@H](S(=O)(=O)c2ccccc2Cl)C[C@H]1C(=O)NC1(C#N)CC1` [Example 95, (2S,4R)-4-(2-Chloro-benzenesulfonyl)-2-(1-cyano-cyclopropylcarbamoyl)-pyrrolidine-1-carboxylic acid methyl ester], for which the IC50 at Cathepsin S is 7.6 nM; on Cat L it was at least 25 µM. As for `N#CC1(NC(=O)[C@H]2C[C@H](S(=O)(=O)c3ccc(OCC(F)(F)F)cc3Cl)CN2C(=O)C2(C(F)(F)F)CC2)CC1` [Example 280, (2R,4S)-4-[2-Chloro-4-(2,2,2-trifluoro-ethoxy)-benzenesulfonyl]-1-(1-trifluoromethyl-cyclopropanecarbonyl)-pyrrolidine-2-carboxylic acid (1-cyano-cyclopropyl)-amide], the IC50 on Cathepsin S amounted to 24.5 nM; on Cat L, 46.5 µM. Take `N#CC1(NC(=O)[C@@H]2C[C@@H](S(=O)(=O)c3ccc(Cl)cc3Cl)CN2C(=O)CC(F)(F)F)CC1` [Example 227, (2S,4R)-4-(2,4-Dichloro-benzenesulfonyl)-1-(3,3,3-trifluoro-propionyl)-pyrrolidine-2-carboxylic acid (1-cyano-cyclopropyl)-amide]: the IC50 at Cathepsin S is 0.6 nM; on Cat L, 15.6 µM. Consider `CC(C)(C)OC(=O)N1C[C@H](S(=O)(=O)c2ccc(F)cc2F)C[C@H]1C(=O)NC1(C#N)CC1` [Example 6, (2S,4R)-2-(1-Cyano-cyclopropylcarbamoyl)-4-(2,4-difluoro-benzenesulfonyl)-pyrrolidine-1-carboxylic acid tert-butyl ester], for which the IC50 on Cathepsin S is 38.5 nM; at Cat L it was at least 25 µM. As to `C[C@H](Oc1ccc(S(=O)(=O)[C@@H]2C[C@@H](C(=O)NC3(C#N)CC3)N(C(=O)C3(C(F)(F)F)CC3)C2)c(Cl)c1)C(F)(F)F` [Example 183, (2S,4R)-4-[2-Chloro-4-((S)-2,2,2-trifluoro-1-methyl-ethoxy)-benzenesulfonyl]-1-(1-trifluoromethyl-cyclopropanecarbonyl)-pyrrolidine-2-carboxylic acid (1-cyano-cyclopropyl)-amide], the IC50 on Cathepsin S was 0.44 nM; at Cat L it was 9.67 µM.

On to `CN1CCN(c2ccc(S(=O)(=O)[C@@H]3C[C@@H](C(=O)NC4(C#N)CC4)N(C(=O)C4(C)CC4)C3)c(C(F)(F)F)c2)CC1` [Example 272, (2S,4R)-1-(1-Methyl-cyclopropanecarbonyl)-4-[4-(4-methyl-piperazin-1-yl)-2-trifluoromethyl-benzenesulfonyl]-pyrrolidine-2-carboxylic acid (1-cyano-cyclopropyl)-amide], for which the IC50 amounted to 0.6 nM at Cathepsin S and 17.1 µM on Cat L. In the same order, the values of `N#CC1(NC(=O)[C@@H]2C[C@@H](S(=O)(=O)c3ccccc3Cl)CN2C(=O)Cc2ncc(Cl)cn2)CC1` [Example 414, (2S,4R)-4-(2-Chloro-benzenesulfonyl)-1-[2-(5-chloro-pyrimidin-2-yl)-acetyl]-pyrrolidine-2-carboxylic acid (1-cyano-cyclopropyl)-amide] are 0.295 nM and 5.45 µM. Turning to `Cc1cc(N2C[C@H](S(=O)(=O)c3ccccc3Cl)C[C@H]2C(=O)NC2(C#N)CC2)n(C2CCSCC2)n1` [Example 465, (2S,4R)-4-(2-chlorophenylsulfonyl)-N-(1-cyanocyclopropyl)-1-(3-methyl-1-(tetrahydro-2H-thiopyran-4-yl)-1H-pyrazol-5-yl)pyrrolidine-2-carboxamide], the IC50 on Cathepsin S worked out at 3.05 nM; at Cat L it was 2.74 µM. On to `N#CC1(NC(=O)[C@@H]2C[C@@H](S(=O)(=O)c3ccc(OCC(F)(F)F)cc3Cl)CN2C(=O)C2(c3ccccc3)CC2)CC1` [Example 240, (2S,4R)-4-[2-Chloro-4-(2,2,2-trifluoro-ethoxy)-benzenesulfonyl]-1-(1-phenyl-cyclopropanecarbonyl)-pyrrolidine-2-carboxylic acid (1-cyano-cyclopropyl)-amide], for which the half-inhibitory concentration (IC50) at Cathepsin S was 0.09 nM; on Cat L it was 0.59 µM. In the case of `CC(C)(C#N)NC(=O)[C@@H]1C[C@@H](S(=O)(=O)c2ccccc2Cl)CN1C(=O)OC(C)(C)C` [Example 33, (2S,4R)-4-(2-Chloro-benzenesulfonyl)-2-[(cyano-dimethyl-methyl)-carbamoyl]-pyrrolidine-1-carboxylic acid tert-butyl ester], the IC50 was 675 nM at Cathepsin S and at least 25 µM at Cat L. Consider `Cc1cc(N2C[C@H](S(=O)(=O)c3ccccc3C(F)(F)F)C[C@@H]2C(=O)NC2(C#N)CC2)n(CC(C)C)n1` [Example 341, (2R,4R)-1-(2-Isobutyl-5-methyl-2H-pyrazol-3-yl)-4-(2-trifluoromethyl-benzenesulfonyl)-pyrrolidine-2-carboxylic acid (1-cyano-cyclopropyl)-amide], for which the IC50 at Cathepsin S was 150 nM; at Cat L it was at least 25 µM. `Cc1cc(N2C[C@H](S(=O)(=O)c3ccc(-c4ccncn4)cc3C(F)(F)F)C[C@H]2C(=O)NC2(C#N)CC2)n(C2CCC2)n1` [Example 419, (2S,4R)-1-(2-Cyclobutyl-5-methyl-2H-pyrazol-3-yl)-4-(4-pyrimidin-4-yl-2-trifluoromethyl-benzenesulfonyl)-pyrrolidine-2-carboxylic acid (1-cyano-cyclopropyl)-amide]: the IC50 on Cathepsin S stood at 0.415 nM; at Cat L, 16.9 µM. Take `N#CC1(NC(=O)[C@@H]2C[C@@H](S(=O)(=O)c3ccccc3C(F)(F)F)CN2c2ncccc2C(F)(F)F)CC1` [Example 186, (2S,4R)-4-(2-Trifluoromethyl-benzenesulfonyl)-1-(3-trifluoromethyl-pyridin-2-yl)-pyrrolidine-2-carboxylic acid (1-cyano-cyclopropyl)-amide]: the half-inhibitory concentration (IC50) at Cat L is at least 25 µM. Take `N#CCNC(=O)[C@@H]1C[C@@H](S(=O)(=O)c2ccccc2C(F)(F)F)CN1c1ccccc1` [Example 151, (2S,4R)-1-Phenyl-4-(2-trifluoromethyl-benzenesulfonyl)-pyrrolidine-2-carboxylic acid cyanomethyl-amide]: the IC50 at Cat L was at least 25 µM. On to `N#CC1(NC(=O)[C@@H]2C[C@@H](S(=O)(=O)c3ccccc3C(F)(F)F)CN2c2ccccc2)CC1` [Example 119, (2S,4R)-1-Phenyl-4-(2-trifluoromethyl-benzenesulfonyl)-pyrrolidine-2-carboxylic acid (1-cyano-cyclopropyl)-amide], for which the IC50 on Cat L is at least 25 µM.
